Source: patent US8993282B2, “Carotenoid fermentation method” (JX Nippon Oil & Energy Corporation, priority 2008, dated 2015)

System: Paracoccus carotinifaciens strain E-396 (FERM BP-4283)
Test: Amino acid supplementation (20 amino acids), test tube culture, carotenoid by HPLC and growth by OD610
Type: cell-based
Conditions: amino acid at 1.0 g/L; for effect on the production of carotenoid pigments: versus tube with no amino acid; for Astaxanthin / Total carotenoid: culture solution; for Astaxanthin / Total carotenoid / OD610: 28° C. for 4 days; for OD610: microbial cell growth, absorbance at 610 nm
Experimental: In the examples, carotenoids were quantified by high performance liquid chromatography (HPLC) as follows.
Two columns of Wakosil-II 5 SIL-100 (φ4.6×250 mm) (Wako Pure Chemical Industries, Ltd., Japan) were connected to each other for use as a column. Elution was performed by flowing an n-hexane-tetrahydrofuran-methanol mixed solution (40:20:1), which was a mobile phase, at a flow rate of 1.0 mL/minute at a constant temperature around room temperature. The measurement was performed as follows. Samples were each dissolved in tetrahydrofuran and then diluted 100-fold with the mobile phase. Each dilution was injected in a volume of 20 μL. The column eluate was detected at a wavelength of 470 nm. As a reference for quantification, astaxanthin (SIGMA, Cat. No. A9335) was used. The astaxanthin concentration of the reference solution was determined using the following equation after measuring the absorbance (A) of the reference solution at 477 nm and the area percentage % (B) of the astaxanthin peak at the time of HPLC analysis under the above conditions. Astaxanthin concentration (mg/L)=A/2150×B×100
A medium of the following composition (sucrose 30 g/L, corn steep liquor 30 g/L, potassium dihydrogenphosphate 1.5 g/L, disodium hydrogenphosphate 12-hydrate 3.8 g/L, calcium chloride dihydrate 5.0 g/L, magnesium sulfate 7-hydrate 0.7 g/L, iron sulfate 7-hydrate 0.3 g/L, pH 7.2) was dispensed in 8 ml volumes into cotton-plugged test tubes having an inner diameter of 18 mm and sterilized in an autoclave at 121° C. for 15 minutes to prepare a test tube medium for seed culture.
Next, a medium of the following composition (glucose 30 g/L, filtered corn steep liquor 5 g/L, ammonium sulfate 1.5 g/L, potassium dihydrogenphosphate 1.5 g/L, disodium hydrogenphosphate 12-hydrate 3.8 g/L, calcium chloride dihydrate 5.0 g/L, magnesium sulfate 7-hydrate 0.7 g/L, iron sulfate 7-hydrate 0.6 g/L, ester-based defoaming agent 0.2 g/L) was dispensed in 8 ml volumes into cotton-plugged test tubes having an inner diameter of 18 mm (21 tubes in total).
The mediums in these test tubes were supplemented with 20 amino acids, glycine, alanine, valine, leucine, isoleucine, serine, threonine, aspartic acid, glutamic acid, asparagine, glutamine, lysine, arginine, cysteine, methionine, phenylalanine, tyrosine, tryptophan, histidine and proline, respectively, at 1.0 g/L. One of the tubes was supplemented with no amino acid as a control. Finally, the mediums in the tubes were adjusted to pH 7.1 with aqueous sodium hydroxide or aqueous sulfuric acid and then sterilized in an autoclave at 121° C. for 20 minutes.
Paracoccus carotinifaciens strain E-396 (FERM BP-4283) was inoculated into the test tube medium for seed culture and then cultured with shaking at 28° C. for 2 days at 300 spm. The resulting culture solution was then inoculated in 0.1 ml volumes into the 21 test tube media, respectively, and cultured with shaking at 28° C. for 4 days at 300 spm.
Each culture solution was measured for its carotenoid concentration by HPLC and microbial cell growth was determined by OD610 (absorbance at 610 nm).

| Structure (SMILES) | effect on the production of carotenoid pigments | Astaxanthin [mg/L] | Total carotenoid [mg/L] | OD610 |
| --- | --- | --- | --- | --- |
| N[C@@H](CS)C(=O)O [Cysteine, cysteine] | clear inhibitory effect | 0.7 | 3.2 | 4 |
| C[C@@H](O)[C@H](N)C(=O)O [Threonine, threonine] | stimulatory effect | 5.2 | 12.5 | 8 |
| N[C@@H](CC(=O)O)C(=O)O [Aspartic Acid, aspartic acid] | stimulatory effect | 9.4 | 27.0 | 18 |
| N[C@@H](Cc1c[nH]cn1)C(=O)O [Histidine, histidine] | – | 3.3 | 8.1 | 8 |
| N[C@@H](Cc1ccccc1)C(=O)O [Phenylalanine, phenylalanine] | stimulatory effect | 4.9 | 10.6 | 10 |
| NCC(=O)O [Glycine, glycine] | stimulatory effect | 6.2 | 19.0 | 18 |
| N[C@@H](Cc1ccc(O)cc1)C(=O)O [Tyrosine, tyrosine] | stimulatory effect | 5.0 | 11.3 | 12 |
| O=C(O)[C@@H]1CCCN1 [Proline, proline] | stimulatory effect | 5.0 | 10.9 | 13 |
| N=C(N)NCCC[C@H](N)C(=O)O [Arginine, arginine] | stimulatory effect | 5.1 | 11.7 | 13 |
| C[C@H](N)C(=O)O [Alanine, alanine] | stimulatory effect | 6.2 | 20.3 | 13 |
| CC(C)[C@H](N)C(=O)O [Valine, valine] | – | 3.0 | 9.2 | 10 |
| CSCC[C@H](N)C(=O)O [Methionine, methionine] | clear inhibitory effect | 1.4 | 5.0 | 7 |
| N[C@@H](CO)C(=O)O [Serine, serine] | stimulatory effect | 6.0 | 16.4 | 13 |
| CC(C)C[C@H](N)C(=O)O [Leucine, leucine] | stimulatory effect | 4.7 | 10.1 | 11 |
| NC(=O)C[C@H](N)C(=O)O [Asparagine, asparagine] | stimulatory effect | 8.1 | 24.2 | 14 |
| CC[C@H](C)[C@H](N)C(=O)O [Isoleucine, isoleucine] | clear inhibitory effect | 1.3 | 4.5 | 6 |
| NCCCC[C@H](N)C(=O)O [Lysine, lysine] | clear inhibitory effect | 1.1 | 4.9 | 11 |
| N[C@@H](Cc1c[nH]c2ccccc12)C(=O)O [Tryptophan, tryptophan] | – | 3.0 | 7.0 | 10 |
| NC(=O)CC[C@H](N)C(=O)O [Glutamine, glutamine] | stimulatory effect | 8.3 | 25.8 | 17 |
